The conditions of series [1]: prior art reports; cited from earlier work.
The nature of series [2]: Hygroscopicity / water sorption of lactitol crystals. It is filed as physicochemical. How it is done: The water sorption of a sample of β crystals was less than about 0.3% of water in 45 days even when the relative humidity of the ambient air was 75% at 40° C.
Series [3] in a line: Storability of crystals at room temperature. It is filed as physicochemical. The note with it: room temperatures, relative humidity below 60%. An excerpt: The new crystalline orthorhombic anhydrous lactitol β has a good flowability and storability, since it is stable at room temperatures, the relative humidity being below 60%.
Series [4] can be described thus: Crystal form after milling (DSC, X-ray powder diffraction). Format: physicochemical. Conditions: laboratory hammer mill, 10 g/min, 600 rpm. As for the experimental part: Good quality anhydrous β lactitol crystals (lactitol assay 99.9%, enthalpy 169.4±0.5 J/g) was milled with a small laboratory hammer mill (Culatti). The feed rate was 10 g/min and the hammer speed 600 rpm. Fine lactitol particles were obtained.

Molecules are shown by their SMILES. Where two headings read alike, the source gives them in different places.

As for `OC[C@@H](O)[C@@H](O[C@@H]1O[C@H](CO)[C@H](O)[C@H](O)[C@H]1O)[C@H](O)[C@@H](O)CO` [A1 anhydrous lactitol, lactitol], the hygroscopicity result in series [1] is reported as “hygroscopic”.
For `OC[C@@H](O)[C@@H](O[C@@H]1O[C@H](CO)[C@H](O)[C@H](O)[C@H]1O)[C@H](O)[C@@H](O)CO` [anhydrous lactitol β, lactitol], the hygroscopicity entry in series [2] is recorded as “very low hygroscopicity”; in series [2] (25° C. and 60% relative humidity), “very low hygroscopicity”; in series [2] (40° C. and 75% relative humidity), “very low hygroscopicity”. For the same compound, the water sorption entry in series [2] (40° C., 75% relative humidity, 45 days) is “less than 0.3%”. Besides, the stability / storability result in series [3] was “stable”. The “crystal form after milling” value in series [4] was “still in the anhydrous β form”.
On to `OC[C@@H](O)[C@@H](O[C@@H]1O[C@H](CO)[C@H](O)[C@H](O)[C@H]1O)[C@H](O)[C@@H](O)CO` [lactitol anhydride], for which the hygroscopicity result in series [1] is “highly hygroscopic”.
As to `OC[C@@H](O)[C@@H](O[C@@H]1O[C@H](CO)[C@H](O)[C@H](O)[C@H]1O)[C@H](O)[C@@H](O)CO` [α lactitol, lactitol], in series [1], the hygroscopicity entry is “low hygroscopicity”.

The values are drawn from US6872414B1, “Anhydrous lactitol crystals, a product containing the same and a process for the preparation thereof as well as use thereof” (Xyrofin Oy, priority 1999, dated 2005).
